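In this assay, cells in 96-well plates receive the compound at five concentrations for 48 hours. Endpoints are linearly interpolated between the surrounding concentrations. Abbreviation: GI50, concentration required for 50% inhibition of growth.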 The source made the active and inactive calls. No stated cut-off is given here; in the data, active = GI50 up to about 1.1 µM and inactive = higher.
Key:
Assay in all cases: growth of human tumour cells (NCI), 48 h
786-0 = system: 786-0
A498 = system: A498
A549 = system: A549
ACHN = system: ACHN
BT-549 = system: BT-549
CAKI-1 = system: CAKI-1
CCRF-CEM = system: CCRF-CEM
COLO 205 = system: COLO 205
DU-145 = system: DU-145
EKVX = system: EKVX
HCC 2998 = system: HCC 2998
HCT-116 = system: HCT-116
HCT-15 = system: HCT-15
HOP-62 = system: HOP-62
HOP-92 = system: HOP-92
HT-29 = system: HT-29
Hs-578T = system: Hs-578T
IGROV-1 = system: IGROV-1
K562 = system: K562
KM12 = system: KM12
M14 = system: M14
MCF7 = system: MCF7
MDA-MB-231 = system: MDA-MB-231
MDA-MB-435 = system: MDA-MB-435
MDA-N = system: MDA-N
MOLT-4 = system: MOLT-4
Malme-3M = system: Malme-3M
NCI-H226 = system: NCI-H226
NCI-H23 = system: NCI-H23
NCI-H460 = system: NCI-H460
NCI-H522 = system: NCI-H522
NCI/ADR-RES = system: NCI/ADR-RES
OVCAR-3 = system: OVCAR-3
OVCAR-4 = system: OVCAR-4
OVCAR-5 = system: OVCAR-5
OVCAR-8 = system: OVCAR-8
PC-3 = system: PC-3
RPMI-8226 = system: RPMI-8226
RXF 393 = system: RXF 393
SF-268 = system: SF-268
SF-295 = system: SF-295
SF-539 = system: SF-539
SK-MEL-2 = system: SK-MEL-2
SK-MEL-5 = system: SK-MEL-5
SK-OV-3 = system: SK-OV-3
SN12C = system: SN12C
SNB-19 = system: SNB-19
SNB-75 = system: SNB-75
SR = system: SR
SW-620 = system: SW-620
TK-10 = system: TK-10
U-251 = system: U-251
UACC-62 = system: UACC-62
UO-31 = system: UO-31
HL-60 = system: HL-60
UACC-257 = system: UACC-257
LOX IMVI = system: LOX IMVI
SK-MEL-28 = system: SK-MEL-28

In the case of `Cc1ccc(C(CC(=O)C(C)(C)CN2CCCCC2)SCCS(=O)(=O)O)cc1` (stereo not given), the GI50 (786-0) is reported as 26.2 µM (inactive), the GI50 (A498) is reported as 19.7 µM (inactive) and the GI50 (A549) is reported as 36.1 µM (inactive). The GI50 (ACHN) was 25.2 µM (inactive), the GI50 (BT-549) was 74.6 µM (inactive) and the GI50 (CAKI-1) was 22.3 µM (inactive). For the same compound, the GI50 (CCRF-CEM) was 19.3 µM (inactive), the GI50 (COLO 205) was 18.8 µM (inactive) and the GI50 (DU-145) was 41.9 µM (inactive). For the same compound, the GI50 (EKVX) was 21.9 µM (inactive), the GI50 (HCC 2998) was 39.4 µM (inactive) and the GI50 (HCT-116) was 22.3 µM (inactive). The GI50 (HCT-15) was 22.6 µM, the GI50 (HOP-62) was 36.6 µM (inactive) and the GI50 (HOP-92) was 17.1 µM (inactive). The GI50 (HT-29) was 24 µM (inactive), the GI50 (Hs-578T) was 30.7 µM (inactive) and the GI50 (IGROV-1) was 33.9 µM (inactive). The GI50 (K562) was 11.6 µM (inactive), the GI50 (KM12) was 31.1 µM (inactive) and the GI50 (M14) was 23.8 µM (inactive). For the same compound, the GI50 (MCF7) was 21.6 µM (inactive), the GI50 (MDA-MB-231) was 34.7 µM (inactive) and the GI50 (MDA-MB-435) was 23.7 µM (inactive). For the same compound, the GI50 (MDA-N) was 31 µM (inactive), the GI50 (MOLT-4) was 20.8 µM (inactive) and the GI50 (Malme-3M) was 26.4 µM (inactive). For the same compound, the GI50 (NCI-H226) was 30.7 µM (inactive), the GI50 (NCI-H23) was 27.9 µM (inactive) and the GI50 (NCI-H460) was 42.3 µM (inactive). For the same compound, the GI50 (NCI-H522) was 25.8 µM (inactive), the GI50 (NCI/ADR-RES) was 28.8 µM (inactive) and the GI50 (OVCAR-3) was 15.5 µM (inactive). For the same compound, the GI50 (OVCAR-4) was 31.6 µM (inactive), the GI50 (OVCAR-5) was 20.9 µM (inactive) and the GI50 (OVCAR-8) was 21.9 µM (inactive). For the same compound, the GI50 (PC-3) was 34.4 µM (inactive), the GI50 (RPMI-8226) was 22.1 µM (inactive) and the GI50 (RXF 393) was 11.8 µM (inactive). For the same compound, the GI50 (SF-268) was 37.8 µM (inactive), the GI50 (SF-295) was 15 µM (inactive) and the GI50 (SF-539) was 23.2 µM (inactive). For the same compound, the GI50 (SK-MEL-2) was 12.5 µM (inactive), the GI50 (SK-MEL-5) was 23.2 µM (inactive) and the GI50 (SK-OV-3) was 49.3 µM (inactive). For the same compound, the GI50 (SN12C) was 25.3 µM (inactive), the GI50 (SNB-19) was 57.4 µM (inactive) and the GI50 (SNB-75) was 31.3 µM (inactive). For the same compound, the GI50 (SR) was 12.2 µM (inactive), the GI50 (SW-620) was 25.8 µM (inactive) and the GI50 (TK-10) was 25.9 µM (inactive). The GI50 (U-251) was 29.4 µM (inactive), the GI50 (UACC-62) was 21.7 µM (inactive) and the GI50 (UO-31) was 25.2 µM (inactive).

In the case of `COC(=O)c1c(O)c(C#N)c2[nH]c3ccccc3n2c1=O`, the GI50 (786-0) is reported as > 100 µM (inactive), the GI50 (A498) is reported as > 100 µM (inactive) and the GI50 (A549) is reported as > 100 µM (inactive). For the same compound, the GI50 (ACHN) was > 100 µM (inactive), the GI50 (BT-549) was > 100 µM (inactive) and the GI50 (CAKI-1) was > 100 µM (inactive). For the same compound, the GI50 (CCRF-CEM) was > 100 µM (inactive), the GI50 (COLO 205) was > 100 µM (inactive) and the GI50 (DU-145) was > 100 µM (inactive). For the same compound, the GI50 (EKVX) was > 100 µM (inactive), the GI50 (HCC 2998) was > 100 µM (inactive) and the GI50 (HCT-116) was > 100 µM (inactive). The GI50 (HCT-15) was greater than 100 µM, the GI50 (HL-60) was > 100 µM (inactive) and the GI50 (HOP-62) was > 100 µM (inactive). The GI50 (HOP-92) was > 100 µM (inactive), the GI50 (HT-29) was > 100 µM (inactive) and the GI50 (Hs-578T) was > 100 µM (inactive). For the same compound, the GI50 (IGROV-1) was > 100 µM (inactive), the GI50 (K562) was > 100 µM (inactive) and the GI50 (KM12) was > 100 µM (inactive). The GI50 (M14) was > 100 µM (inactive), the GI50 (MCF7) was > 100 µM (inactive) and the GI50 (MDA-MB-231) was > 100 µM (inactive). The GI50 (MDA-MB-435) was > 100 µM (inactive), the GI50 (MDA-N) was > 100 µM (inactive) and the GI50 (MOLT-4) was > 100 µM (inactive). The GI50 (Malme-3M) was > 100 µM (inactive), the GI50 (NCI-H226) was > 100 µM (inactive) and the GI50 (NCI-H23) was > 100 µM (inactive). The GI50 (NCI-H460) was > 100 µM (inactive), the GI50 (NCI-H522) was > 100 µM (inactive) and the GI50 (NCI/ADR-RES) was > 100 µM (inactive). For the same compound, the GI50 (OVCAR-3) was > 100 µM (inactive), the GI50 (OVCAR-4) was > 100 µM (inactive) and the GI50 (OVCAR-5) was > 100 µM (inactive). The GI50 (OVCAR-8) was > 100 µM (inactive), the GI50 (PC-3) was > 100 µM (inactive) and the GI50 (RPMI-8226) was > 100 µM (inactive). For the same compound, the GI50 (RXF 393) was > 100 µM (inactive), the GI50 (SF-268) was > 100 µM (inactive) and the GI50 (SF-295) was > 100 µM (inactive). For the same compound, the GI50 (SF-539) was > 100 µM (inactive), the GI50 (SK-MEL-2) was > 100 µM (inactive) and the GI50 (SK-MEL-5) was > 100 µM (inactive). The GI50 (SK-OV-3) was > 100 µM (inactive), the GI50 (SN12C) was > 100 µM (inactive) and the GI50 (SNB-19) was > 100 µM (inactive). For the same compound, the GI50 (SNB-75) was > 100 µM (inactive), the GI50 (SR) was > 100 µM (inactive) and the GI50 (SW-620) was > 100 µM (inactive). For the same compound, the GI50 (TK-10) was > 100 µM (inactive), the GI50 (U-251) was > 100 µM (inactive) and the GI50 (UACC-257) was > 100 µM (inactive). For the same compound, the GI50 (UACC-62) was > 100 µM (inactive) and the GI50 (UO-31) was > 100 µM (inactive).

In the case of `CCN(CC)C(=S)Nc1ccc(-c2cc3ccc(O)cc3oc2=O)cc1`, the GI50 (786-0) is reported as 39.4 µM (inactive), the GI50 (A498) is reported as 20.8 µM (inactive) and the GI50 (A549) is reported as 44.9 µM (inactive). For the same compound, the GI50 (ACHN) was 25.9 µM (inactive), the GI50 (BT-549) was 26.1 µM (inactive) and the GI50 (CAKI-1) was 31.2 µM (inactive). For the same compound, the GI50 (CCRF-CEM) was 16.4 µM (inactive), the GI50 (COLO 205) was 29.4 µM (inactive) and the GI50 (DU-145) was 29.8 µM (inactive). The GI50 (EKVX) was 32 µM (inactive), the GI50 (HCC 2998) was 20.2 µM (inactive) and the GI50 (HCT-116) was 26.1 µM (inactive). The GI50 (HCT-15) was 19.7 µM, the GI50 (HL-60) was 3.76 µM (inactive) and the GI50 (HT-29) was 16.8 µM (inactive). For the same compound, the GI50 (Hs-578T) was 25.4 µM (inactive), the GI50 (IGROV-1) was 30.6 µM (inactive) and the GI50 (K562) was 18.4 µM (inactive). The GI50 (KM12) was 28.8 µM (inactive), the GI50 (LOX IMVI) was 25.9 µM (inactive) and the GI50 (M14) was 27.2 µM (inactive). The GI50 (MCF7) was > 10 µM (inactive), the GI50 (MDA-MB-231) was 39.4 µM (inactive) and the GI50 (MDA-MB-435) was 28.6 µM (inactive). For the same compound, the GI50 (MDA-N) was 24.8 µM (inactive), the GI50 (MOLT-4) was 13.4 µM (inactive) and the GI50 (Malme-3M) was 17 µM (inactive). The GI50 (NCI-H226) was 25.6 µM (inactive), the GI50 (NCI-H23) was 29.7 µM (inactive) and the GI50 (NCI-H460) was 31.4 µM (inactive). For the same compound, the GI50 (NCI-H522) was 17 µM (inactive), the GI50 (NCI/ADR-RES) was 20.6 µM (inactive) and the GI50 (OVCAR-3) was 17.4 µM (inactive). The GI50 (OVCAR-5) was 26.2 µM (inactive), the GI50 (OVCAR-8) was 26.9 µM (inactive) and the GI50 (PC-3) was 23.4 µM (inactive). For the same compound, the GI50 (RPMI-8226) was 21.6 µM (inactive), the GI50 (RXF 393) was 30.2 µM (inactive) and the GI50 (SF-268) was 32.1 µM (inactive). For the same compound, the GI50 (SF-295) was 36.5 µM (inactive), the GI50 (SF-539) was 29.2 µM (inactive) and the GI50 (SK-MEL-28) was 25.9 µM (inactive). The GI50 (SK-MEL-2) was 20.3 µM (inactive), the GI50 (SK-MEL-5) was 22.3 µM (inactive) and the GI50 (SK-OV-3) was 44.1 µM (inactive). For the same compound, the GI50 (SN12C) was 27 µM (inactive), the GI50 (SNB-19) was 29.9 µM (inactive) and the GI50 (SNB-75) was 16.4 µM (inactive). The GI50 (SR) was 14.5 µM (inactive), the GI50 (SW-620) was 34 µM (inactive) and the GI50 (TK-10) was 39 µM (inactive). The GI50 (U-251) was 11.8 µM (inactive), the GI50 (UACC-257) was 22 µM (inactive) and the GI50 (UACC-62) was 32.4 µM (inactive). The GI50 (UO-31) was 17.5 µM (inactive).

Source: ChEMBL document CHEMBL1201862, “PubChem BioAssay data set” (2004)
